Results: US20120157356A1, “Hydraulic fracturing with slick water from dry blends” (priority 2010, published 2012)

system: not listed separately; assay: Flowability: drainage time through a wide-mouth funnel; conditions: dry powder flowability
Text: Also, the powder must be flowable (low angle of repose), with the flow measured as the drainage time through a wide-mouth funnel.

Compound | Time in Minutes (drainage time through a wide-mouth funnel)
[Cl-].[K+] [Potassium Chloride] | 0.05 min
N.N.O=S(=O)(O)OOS(=O)(=O)O [Ammonium Persulfate] | 0.2 min

system: Rats; assay: not given; conditions: no unit in table, b36: normally expressed as mg per kilogram of body mass; cited from earlier work

Compound | Acute Oral Effect LD50 Rats
O=S([O-])O.[Na+] [Sodium Bisulfite] | 1,131
O=C1O[C@H]([C@H](O)CO)C([O-])=C1O.[Na+] [Sodium Erythorbate] | 5,000
C[N+](C)(C)C.[Cl-] [Tetramethylammonium Chloride] | 94
Cc1cc(O)cc(C)c1Cl [PCMX] | 3,830
CN1CSC(=S)N(C)C1 [Dazomet, tetrahydro-3,5-dimethyl-2H-1,3,5-thiadiazine-2-thione] | 519
C[N+](C)(C)CCO.[Cl-] [Choline Chloride] | 3,400
O=S([O-])([O-])=S.[Na+].[Na+] [Sodium Thiosulfate] | 2,890

system: not listed separately; assay: Apparent density by volume increase of a dispersion of known weight of solid in mineral oil; type: physicochemical; conditions: not given
Text: If batch mix operations (illustrated in FIG. 1) are used so that time of mixing is not critical, particle size of the components used in the blend can be as large as 18 mesh (1.0 mm). However, if the mixing is to be based on a continuous mix process (FIG. 2), timing becomes more critical, requiring that the polymeric components disperse and begin hydration prior to reaching the well head. In this case, the particle size of the components preferably is 40 mesh (0.420 mm) or smaller, but more preferably 80 mesh (0.177 mm) or smaller. Also, it is preferred that the particle size and the apparent density of all the components be about the same (to minimize segregation during shipping and storage). Apparent densities of selected commercial components, as measured by measuring volume increase of a dispersion of a known weight of solid in mineral oil, are shown in Table 2. A dry blend preferably will be formed of components for each function in a fracturing fluid having apparent densities and particle sizes matched to the best extent possible. Inert solids, such as fumed silica, may be combined with active ingredients to form solid particles having a preferred density.

Compound | Apparent Density
CN1CSC(=S)N(C)C1 [Dazomet 99%] | 1.111 g/mL
O=S([O-])([O-])=S.[Na+].[Na+] [Sodium Thiosulfate] | 1.667 g/mL
